In patent US20260297060A1, “COMPOUNDS FOR THE DEGRADATION OF MUTANT BRAF” (C4 THERAPEUTICS, INC., priority 2023, published 2026):
Where two headings read alike, the source gives them in different places.

Key:
[1] = system: A375 human melanoma xenografts; experiment: Example 7 efficacy study in A375 human melanoma xenografts (tumor volume, T/C, TGI); format: in vivo, BALB/c nude mice; settings: 100 mg/kg, p.o., QD × 14 days
Procedure: For efficacy study, agents were tested in the A375 human melanoma xenografts. Compound 118, Compound 156, and Compound 180 were administered to BALB/c nude mice bearing A375 xenografts from day 0 and dosed p.o. twice per day (BID). Compound 141 was administered from day 0 and dosed p.o. twice per day (BID) or dosed p.o. daily (QD) from day 1. Compound 141, Compound 118, Compound 156, and Compound 180 were dosed at 10 mg/kg for 14 days. The known BRAF inhibitor Dabrafenib was used as a positive control. Dabrafenib was administered from day 1 and dosed p.o. daily (QD) for 14 days and dosed at 100 mg/kg.
The A375 tumor cells were maintained in vitro in DMEM medium supplemented with […] and 1% Penicillin-Streptomycin at 37° C. in an atmosphere of 5% CO2 in air. The tumor cells were routinely subcultured twice weekly. The cells growing in an exponential growth phase were harvested and counted for tumor inoculation.
Each mouse was inoculated subcutaneously at the right flank with A375 tumor cells (5×10^6) in 0.2 mL of PBS with Matrigel (PBS: Matrigel=1:1) supplemented for tumor development. Animals were grouped when the average tumor volume reached 246 mm^3 for efficacy study and 390 mm^3 for PKPD study on day 17 after tumor inoculation. The test articles administration and the animal numbers in each group are shown in the above experimental tables.
Prior to the onset of drug treatment, mice were measured for tumor size in two dimensions using a caliper, and the tumor volume (mm^3) was calculated using formula V=0.5 a×b^2 where a and b are the long and short diameters of the tumor in mm, respectively. Mice were randomized into different treatment groups based on the tumor volume.
The major endpoint was to see if the tumor growth could be delayed or mice could be cured. The tumor size was then used for calculations of T/C value. The T/C value (in percent) is an indication of antitumor effectiveness; T and C are the mean volumes of the treated and control groups, respectively on specified day.
TGI was calculated for each group using the formula: TGI (%)=[1−(Ti−T0)/(Ci−C0)]×100; Ti is the average tumor volume of a treatment group on a given day, T0 is the average tumor volume of the treatment group on the day of treatment start, Ci is the average tumor volume of the vehicle control group on the same day with Ti, and C0 is the average tumor volume of the vehicle group on the day of treatment start.

[2] = Example 8 pharmacokinetics assay for PKPD study (plasma, tumor, liver); format: in vivo, BALB/c nude mice; settings: mouse, po, 35 mg/kg, p.o., single dose
Procedure: For the PK and PD study, agents were administered to BALB/c nude mice bearing A375 human melanoma xenografts tumors. encorafenib, Compound 8, Compound 26, Compound 38, and Compound 39 were dosed p.o. once on day 1. Encorafenib was dosed at 35 mg/kg, Compound 8, Compound 26, Compound 38, and Compound 39 were dosed at 10 mg/kg. This study was non-GLP.
The plasma samples were collected at predetermined time points for PK analysis. For non-termination plasma collection, blood samples were collected into the 1.5 mL Eppendorf tubes containing 3 μL of 0.5 M EDTA-K2. For termination plasma collection, the mice were euthanized at predetermined time points post the treatment and the blood samples were collected into the 1.5 mL Eppendorf tubes containing 15 μL of 0.5 M EDTA-K2. And then the anticoagulant blood samples were centrifuged at 2,500 g at 4° C. for 15 minutes. The plasma samples were separated into 2 aliquots. The 1st was used for PK analysis, and the 2nd served as backup. The samples were stored at −80° C. before bioanalysis.
The tumor samples were collected at predetermined time points for PK and WB analysis. The tumor was dissected out and split into 3 parts. The 1st part was used for PK analysis, the 2nd part was used for WB analysis and the last one served as backup for study. The samples were transferred into pre-labeled tubes and quickly froze in liquid nitrogen within 2 minutes after dissection. The samples were stored at −80° C. before bioanalysis.
Liver samples were collected at predetermined time points for PK analysis. The left lobe of the liver was dissected out and split into 2 parts. The 1st part was used for PK analysis and the 2nd part served as the backup for the study. The samples were transferred into pre-labeled tubes and quickly froze in liquid nitrogen within 2 minutes after dissection. The samples were stored at −80° C. before bioanalysis.
The harvested plasma and liver samples were processed for pharmacokinetics analysis by LC-MS/MS with a concentration range of 0.200~200 ng/mL for encorafenib in plasma and liver homogenate, and 0.100-100 ng/ml in tumor homogenate, 1.00-1000 ng/mL for Compound 8 in plasma and 0.500~500 ng/ml in tumor and liver homogenate, 50.0~50,000 ng/mL for Compound 26 and Compound 38 in plasma, 5.0~5000 ng/ml in liver and 2.00~2000 ng/ml in tumor homogenate, 1.00-1000 ng/mL for Compound 39 in plasma and 0.500~500 ng/mL in liver and tumor homogenate.

[3] = liver, read-out: Concentration in Liver (mean ± SEM)
[4] = plasma, read-out: Concentration in Plasma (mean ± SEM)
[5] = tumor, read-out: Concentration in Tumor (mean ± SEM)

Row | SMILES | T/C ([1]; PG-D14) [%] | TGI ([1]; PG-D14) [%] | Tumor Size on PG-D14 (mean ± SEM) ([1]; PG-D14) [mm^3] | Tumor Volume (mean ± SEM) ([1]; day 0) [mm^3] | Tumor Volume (mean ± SEM) ([1]; day 3) [mm^3] | Tumor Volume (mean ± SEM) ([1]; day 7) [mm^3] | Tumor Volume (mean ± SEM) ([1]; day 10) [mm^3] | Tumor Volume (mean ± SEM) ([1]; day 14) [mm^3] | concentration at 6 h [2, 3] [ng/g] | concentration at 12 h [2, 3] [ng/g] | concentration at 1 h [2, 4] [ng/mL] | concentration at 6 h [2, 4] [ng/mL] | concentration at 12 h [2, 4] [ng/mL] | concentration at 24 h ([2]; plasma, 24 h, read-out: Concentration in Plasma (mean ± SEM)) [ng/mL] | concentration at 1 h [2, 5] [ng/g] | concentration at 6 h [2, 5] [ng/g] | concentration at 12 h [2, 5] [ng/g]
1 | CC(C)(C)c1nc(-c2cccc(NS(=O)(=O)c3c(F)cccc3F)c2F)c(-c2ccnc(N)n2)s1 [Dabrafenib, dabrafenib, reference compound] | 55.8 | 54.3 | 741 ± 40 | 246 ± 10 | 394 ± 20 | 515 ± 30 | 608 ± 21 | 741 ± 40 |  |  |  |  |  |  |  |  | 
2 | COC(=O)N[C@@H](C)CNc1nccc(-c2cn(C(C)C)nc2-c2cc(Cl)cc(NS(C)(=O)=O)c2F)n1 [Encorafenib, encorafenib, reference compound] |  |  |  |  |  |  |  |  | 362 ± 231 | 16 ± 5.3 | 5510 ± 1700 | 585 ± 446 | 11.3 ± 8.5 | 0.368 ± 0.082 | 1350 ± 391 | 139 ± 76.2 | 16.1 ± 10.9
